According to patent US10150728B2, “Alkylene derivatives” (Shionogi & Co., Ltd., priority 2013, dated 2018):
pIC50: −log10 of the molar value.

Each compound was assayed against recombinant human ACC2 (Homo sapiens (Human), UniProt O00763) (assay: Measurement of inhibitory activity on human ACC2 (MALDI-TOF MS, acetyl CoA to malonyl CoA conversion)). Conditions: Tables 155-159.
Format: biochemical
Summary of the method: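 His-tagged human ACC2 (residues 27–2458) from baculovirus-infected Sf-9 cells was preincubated 1 h in pH 7.4 HEPES-KOH buffer with MgCl2, 6-10 mM potassium citrate, glutathione and BSA. Substrate solution held 1 mM ATP, 0.8 mM acetyl CoA and 25-50 mM bicarbonate. After 1–3 h at room temperature, malonyl CoA/(malonyl+acetyl CoA) was read by negative-mode MALDI-TOF MS; citrate, bicarbonate and time varied by enzyme lot.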

recombinant human ACC2, sequence (O00763 27-2458): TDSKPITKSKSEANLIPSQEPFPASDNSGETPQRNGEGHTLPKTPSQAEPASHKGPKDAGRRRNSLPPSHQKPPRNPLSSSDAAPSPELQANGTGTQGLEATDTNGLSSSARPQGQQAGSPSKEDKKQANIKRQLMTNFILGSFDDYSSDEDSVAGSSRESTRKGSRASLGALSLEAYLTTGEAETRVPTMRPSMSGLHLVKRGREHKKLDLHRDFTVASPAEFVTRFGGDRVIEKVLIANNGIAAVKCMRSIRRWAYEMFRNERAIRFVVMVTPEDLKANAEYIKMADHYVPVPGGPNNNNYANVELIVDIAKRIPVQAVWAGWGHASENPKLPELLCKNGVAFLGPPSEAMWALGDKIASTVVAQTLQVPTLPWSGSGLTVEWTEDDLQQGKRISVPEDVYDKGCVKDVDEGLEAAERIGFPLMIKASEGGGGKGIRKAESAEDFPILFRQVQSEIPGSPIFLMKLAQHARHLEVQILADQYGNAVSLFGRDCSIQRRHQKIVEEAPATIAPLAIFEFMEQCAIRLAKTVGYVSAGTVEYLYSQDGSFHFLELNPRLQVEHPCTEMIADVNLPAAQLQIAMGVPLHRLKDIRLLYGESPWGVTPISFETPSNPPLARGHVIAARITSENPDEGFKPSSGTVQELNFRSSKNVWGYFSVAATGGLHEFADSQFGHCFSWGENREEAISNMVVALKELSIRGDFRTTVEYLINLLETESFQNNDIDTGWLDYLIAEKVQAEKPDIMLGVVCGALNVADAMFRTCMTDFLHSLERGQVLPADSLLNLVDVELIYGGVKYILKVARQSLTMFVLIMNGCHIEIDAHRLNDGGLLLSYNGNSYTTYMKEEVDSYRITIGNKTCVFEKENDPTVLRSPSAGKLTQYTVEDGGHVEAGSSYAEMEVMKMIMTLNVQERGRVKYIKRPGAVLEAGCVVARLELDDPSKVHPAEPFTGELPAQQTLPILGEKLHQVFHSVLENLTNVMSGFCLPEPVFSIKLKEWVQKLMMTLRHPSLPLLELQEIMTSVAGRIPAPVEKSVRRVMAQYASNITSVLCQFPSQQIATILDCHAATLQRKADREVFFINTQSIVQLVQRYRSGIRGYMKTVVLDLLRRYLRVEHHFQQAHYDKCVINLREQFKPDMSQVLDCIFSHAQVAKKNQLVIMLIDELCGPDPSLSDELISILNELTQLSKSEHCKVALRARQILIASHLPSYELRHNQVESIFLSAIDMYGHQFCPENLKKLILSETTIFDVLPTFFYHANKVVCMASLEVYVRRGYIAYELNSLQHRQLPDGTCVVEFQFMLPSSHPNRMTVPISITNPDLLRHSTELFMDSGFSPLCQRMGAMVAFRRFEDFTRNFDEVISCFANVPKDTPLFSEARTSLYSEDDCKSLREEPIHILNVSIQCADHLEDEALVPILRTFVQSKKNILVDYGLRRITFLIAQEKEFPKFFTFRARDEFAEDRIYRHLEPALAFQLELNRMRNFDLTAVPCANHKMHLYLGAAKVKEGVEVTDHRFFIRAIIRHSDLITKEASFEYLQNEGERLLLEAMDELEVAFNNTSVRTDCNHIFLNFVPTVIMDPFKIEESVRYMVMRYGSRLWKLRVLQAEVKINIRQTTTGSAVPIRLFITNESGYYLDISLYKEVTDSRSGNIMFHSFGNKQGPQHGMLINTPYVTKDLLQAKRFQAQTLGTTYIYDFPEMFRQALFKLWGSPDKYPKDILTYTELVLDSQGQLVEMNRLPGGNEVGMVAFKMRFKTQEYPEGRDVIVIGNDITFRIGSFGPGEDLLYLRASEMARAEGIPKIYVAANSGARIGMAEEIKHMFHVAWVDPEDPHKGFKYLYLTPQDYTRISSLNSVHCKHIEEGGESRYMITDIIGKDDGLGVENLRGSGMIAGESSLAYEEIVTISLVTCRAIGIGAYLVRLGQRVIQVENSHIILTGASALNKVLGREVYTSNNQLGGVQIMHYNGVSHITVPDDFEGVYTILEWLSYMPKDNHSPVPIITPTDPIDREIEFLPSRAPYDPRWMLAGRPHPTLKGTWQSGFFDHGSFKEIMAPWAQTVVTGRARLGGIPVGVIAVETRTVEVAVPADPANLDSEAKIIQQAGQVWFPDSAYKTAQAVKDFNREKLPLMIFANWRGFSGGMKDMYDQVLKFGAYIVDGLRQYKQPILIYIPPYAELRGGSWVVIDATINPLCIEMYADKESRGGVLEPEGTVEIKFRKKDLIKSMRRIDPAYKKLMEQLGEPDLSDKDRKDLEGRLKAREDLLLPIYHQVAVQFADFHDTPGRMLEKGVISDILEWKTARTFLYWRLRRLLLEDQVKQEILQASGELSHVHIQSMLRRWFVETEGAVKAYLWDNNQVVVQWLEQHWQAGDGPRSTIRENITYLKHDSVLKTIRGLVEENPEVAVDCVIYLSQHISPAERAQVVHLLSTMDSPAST

Structure (SMILES) | pIC50
CCOc1nc2ccc(OC[C@H]3C[C@H](OC[C@H](C)NC(C)=O)C3)nc2n1CC [Compound I-479] | 6.25
CC(=O)N[C@@H](C)CO[C@H]1C[C@H](COc2ccc3nc(OCc4ccccc4)n(C)c3n2)C1 [Compound I-480] | 7.39
CC(=O)N[C@@H](C)CO[C@H]1C[C@H](COc2ccc3nc(OCCC(C)C)n(C)c3n2)C1 [Compound I-482] | 7.06
CCCOc1nc2ccc(OC[C@H]3C[C@H](OC[C@H](C)NC(C)=O)C3)nc2n1C [Compound I-483] | 7.09
CC(=O)N[C@@H](C)CO[C@H]1C[C@H](COc2cc(C)c3nc(OCC4CC4)n(C)c3n2)C1 [Compound I-486] | 6.14
CCOc1nc2cc(Cl)c(OC[C@H]3C[C@H](OC[C@H](C)NC(C)=O)C3)nc2n1C [Compound I-488] | 6.50
CC(=O)N[C@@H](C)CO[C@H]1C[C@H](COc2ccc3nc(OCC4CC4)n(C)c3c2)C1 [Compound I-489] | 6.07
CCOc1nc2ccc(O[C@H]3CC[C@H](OC[C@H](C)NC(C)=O)CC3)nc2n1C [Compound I-491] | 7.29
CC(=O)N[C@@H](C)CO[C@H]1CC[C@H](Oc2ccc3nc(OC(C)C)n(C)c3n2)CC1 [Compound I-494] | 7.34
CC(=O)N[C@@H](C)CO[C@H]1CC[C@H](Oc2ccc3nc(OC4CC4)n(C)c3n2)CC1 [Compound I-495] | 7.13
CC(=O)N[C@@H](C)CO[C@H]1CC[C@H](Oc2ccc3nc(OCC4CC4)n(C)c3n2)CC1 [Compound I-496] | 7.62
CC(=O)N[C@@H](C)CO[C@H]1CC[C@H](Oc2ccc3nc(OCc4ccccc4)n(C)c3n2)CC1 [Compound I-501] | 8.05
CC(=O)N[C@@H](C)CO[C@H]1CC[C@H](Oc2ccc3nc(OCCC(F)(F)F)n(C)c3n2)CC1 [Compound I-504] | 7.74

Continued by rising pIC50, values first:

pIC50 | Structure (SMILES)
6.32 | CCOc1nc2ccc(OC[C@H]3C[C@H](OC[C@H](C)NC(C)=O)C3)c(Cl)c2n1C [Compound I-490]
6.44 | CCOc1nc2ccc(OC[C@H]3C[C@H](OC[C@H](C)NC(C)=O)C3)c(F)c2n1C [Compound I-487]
6.53 | CC(=O)N[C@@H](C)CO[C@H]1C[C@H](COc2ccc3nc(Oc4ccccc4)n(C)c3n2)C1 [Compound I-481]
6.61 | CC(=O)N[C@@H](C)CO[C@H]1C[C@H](COc2ccc3nc(OCC4CC4(F)F)n(C)c3n2)C1 (stereo partly shown) [Compound I-477]
6.69 | CC(=O)N[C@@H](C)CO[C@H]1C[C@H](COc2ccc3nc(OCC(F)F)n(C)c3n2)C1 [Compound I-484]
6.74 | CC(=O)N[C@@H](C)CO[C@H]1C[C@H](COc2ccc3nc(OC[C@H](C)F)n(C)c3n2)C1 [Compound I-485]
6.94 | CC(=O)N[C@@H](C)CO[C@H]1C[C@H](COc2ccc3nc(OC4CC(F)(F)C4)n(C)c3n2)C1 [Compound I-478]
7.13 | CC(=O)N[C@@H](C)CO[C@H]1C[C@H](COc2ccc3nc(OCC4CC4)n(C)c3n2)C1 [Compound I-476]
7.15 | CCOc1nc2ccc(O[C@H]3CC[C@H](OC[C@H](C)NC(C)=O)CC3)nc2n1CC [Compound I-493]
7.21 | CC(=O)N[C@@H](C)CO[C@H]1CC[C@H](Oc2ccc3nc(OC4(C)CC4)n(C)c3n2)CC1 [Compound I-502]
7.40 | CC(=O)N[C@@H](C)CO[C@H]1CC[C@H](Oc2ccc3nc(OCC(F)F)n(C)c3n2)CC1 [Compound I-499]
7.62 | CC(=O)N[C@@H](C)CO[C@H]1CC[C@H](Oc2ccc3nc(OCC4CC4(F)F)n(C)c3n2)CC1 (stereo partly shown) [Compound I-503]
7.68 | CC(=O)N[C@@H](C)CO[C@H]1CC[C@H](Oc2ccc3nc(OCC(C)(F)F)n(C)c3n2)CC1 [Compound I-500]
7.82 | CC(=O)N[C@@H](C)CO[C@H]1CC[C@H](Oc2ccc3nc(OC4CC(F)(F)C4)n(C)c3n2)CC1 [Compound I-497]
7.89 | CC(=O)N[C@@H](C)CO[C@H]1CC[C@H](Oc2ccc3nc(OCC(F)(F)F)n(C)c3n2)CC1 [Compound I-498]
